This is an account of results in patent publication US4086417A, “Cytidine nucleotide derivatives” (Asahi Kasei Kogyo Kabushiki Kaisha, priority 1974, dated 1978).

Series [1] is described as follows: Solubility test: solubility in water. In kind it is physicochemical. The source says:
In the aforesaid examples, the products were obtained as white solids.
In Table 1, -Ara-C means "-1-β-D-arabinofuranosylcytosine" and -5'-Pna and -5'-PNa2 mean "-1-β-D-arabinofuranosylcytosine-5'-phosphate monosodium salt" and "-1-β-D-arabinofuranosylcytosine-5'-phosphate disodium salt," respectively.

Series [2] deals with leukemia L-1210. Nature of the series: Antitumour activity in mice inoculated intraperitoneally with leukemia L-1210 (survival, T/C). In kind it is in vivo, CDF-1 male mice. The conditions noted are these: Mus musculus, L1210, ip, directly after injection of L-1210, after 2 days and after 6 days; for response vs control in vivo at 100 mg/kg: 100 mg/kg i.p.; for response vs control in vivo at 200 mg/kg: 200 mg/kg i.p.; for response vs control in vivo at 400 mg/kg: 400 mg/kg i.p. How it is done: The antitumour activity for mice of the test material was evaluated by means of survival rate comparison, T/C (%), that is, 100 times the mean survival period of the groups injected with the test material divided by the mean survival period of the comparison groups which were not injected with the test material.
Further, for comparison, the following materials were also subjected to the same biological test: […]

Series [3] has as its system leukemia L-1210. The settings on record: background; cited from earlier work.
For series [4] the following is noted: cited from earlier work.
The test system of a further series is deoxycytidine deaminase. The conditions noted are these: background; cited from earlier work.

For orientation: solubility means the dissolved amount per volume that the medium holds. Higher therefore signals much dissolved substance.

Converted amounts (≈) assume the structure as drawn. Structures can show the parent of a compound that is named as a salt. Where two headings read alike, the source gives them in different places.

With `CCCCCCCCCCCCCCCCCC(=O)Nc1ccn([C@@H]2O[C@H](COP(=O)(O)O)[C@@H](O)[C@@H]2O)c(=O)n1` [N^4 -Stearoyl-5'-PNa, N^4-stearoyl-1-β-D-arabinofuranosylcytosine-5'-phosphate monosodium salt], the Solubility in water in series [1] (monosodium salt) was greater than 10000 µg/mL. In the series with leukemia L-1210 [2], this molecule registered a response vs control in vivo at 100 mg/kg greater than 363%, a response vs control in vivo at 200 mg/kg greater than 338% and a response vs control in vivo at 400 mg/kg of 104%.

In the case of `O=c1ccn([C@@H]2O[C@H](CO)[C@@H](O)[C@@H]2O)c(=O)[nH]1` [uracil arabinoside], the “Antileukemial activity (in words)” value in the series on leukemia L-1210 [3] is reported as “possesses no antileukemial activity”.

Regarding `CCCCCCCCCCCCCCCC(=O)Nc1ccn([C@@H]2O[C@H](COP(=O)(O)O)[C@@H](O)[C@@H]2O)c(=O)n1` [N^4 -Palmitoyl-5'-PNa, N^4-palmitoyl-1-β-D-arabinofuranosylcytosine-5'-phosphate monosodium], the Solubility in water in series [1] is greater than 30000 µg/mL. For the same molecule, in the series on leukemia L-1210 [2], the response vs control in vivo at 100 mg/kg was greater than 349%, the response vs control in vivo at 200 mg/kg was greater than 342% and the response vs control in vivo at 400 mg/kg was 98%.

Turning to `CCCCCCCCCCCCCCCCC(=O)Nc1ccn([C@@H]2O[C@H](CO)[C@@H](O)[C@@H]2O)c(=O)n1` [N^4 -Margaroyl-Ara-C], in series [1], the solubility was less than 10 µg/mL. In the series on leukemia L-1210 [2], this molecule registered a response vs control in vivo at 100 mg/kg greater than 397%, a response vs control in vivo at 200 mg/kg of 188% and a response vs control in vivo at 400 mg/kg of 99%.

With `CCCCCCCCCCCCCCCCCC(=O)Nc1ccn([C@@H]2O[C@H](CO)[C@@H](O)[C@@H]2O)c(=O)n1` [N^4 -Stearoyl-Ara-C, N^4-stearoyl-1-β-D-arabinofuranosylcytosine], the solubility in series [1] was less than 10 µg/mL. In addition, in the series on leukemia L-1210 [2], the response vs control in vivo at 100 mg/kg was greater than 274%, the response vs control in vivo at 200 mg/kg worked out at 123% and the response vs control in vivo at 400 mg/kg is 111%.

In series [1], `CCCCCCCC/C=C\CCCCCCCC(=O)Nc1ccn([C@@H]2O[C@H](CO)[C@@H](O)[C@@H]2O)c(=O)n1` [N^4 -Oleoyl-Ara-C] had a solubility of 50 µg/mL (≈ 98.5 µM). In the series with leukemia L-1210 [2], the response vs control in vivo at 100 mg/kg came to 261%, the response vs control in vivo at 200 mg/kg was 135% and the response vs control in vivo at 400 mg/kg stood at 94%.

Turning to `N=c1ccn2c(n1)O[C@H]1[C@H](O)[C@@H](CO)O[C@H]12` [2,2'-ANHYDROCYTOSINE ARABINOSIDE, 2,2'-anhydrocytosine arabinoside], the “Biological half life / excretion (in words)” value in series [4] (in vivo) was “the biological half life of this derivative is as short as that of cytosine arabinoside”. Also, the “Deamination / resistance to deaminase (in words)” value with deoxycytidine deaminase was “SHOWS HIGH RESISTANCE TO THE DEAMINOSE”. The “Antileukemial activity (in words)” value in the series on leukemia L-1210 [3] is reported as “does not have antileukemial activity”.

In the case of `CCCCCCCCCCCCCCCC(=O)Nc1ccn([C@@H]2O[C@H](CO)[C@@H](O)[C@@H]2O)c(=O)n1` [N^4 -Palmitoyl-Ara-C, N^4-palmitoyl-1-β-D-arabinofuranosylcytosine], in series [1], the solubility turned out to be 10 µg/mL (≈ 20.8 µM). In the series with leukemia L-1210 [2], this molecule yielded a response vs control in vivo at 100 mg/kg greater than 346%, a response vs control in vivo at 200 mg/kg of 83% and a response vs control in vivo at 400 mg/kg of 78%.

As to `CCCCCCCCCCCCCCCCC(=O)Nc1ccn([C@@H]2O[C@H](COP(=O)(O)O)[C@@H](O)[C@@H]2O)c(=O)n1` [N^4 -Margaroyl-5'-PNa, N^4-margaroyl-1-β-D-arabinofuranosylcytosine-5'-phosphate monosodium], the Solubility in water in series [1] was greater than 10000 µg/mL. Besides, in the series on leukemia L-1210 [2], the response vs control in vivo at 100 mg/kg was greater than 395%, the response vs control in vivo at 200 mg/kg is greater than 382% and the response vs control in vivo at 400 mg/kg is 101%.

In the case of `Nc1ccn([C@@H]2O[C@H](CO)[C@@H](O)[C@@H]2O)c(=O)n1` [Ara-C, 1-β-D-arabinofuranosylcytosine], in series [4] (background), the “Biological half life / excretion (in words)” value is on record as “the biological half life of the medicament is short”. In the series on deoxycytidine deaminase, the “Deamination / resistance to deaminase (in words)” value is reported as “readily converted into uracil arabinoside”. Moreover, in the series with leukemia L-1210 [3], the “Antileukemial activity (in words)” value is “one of the most effective known antileukemial agents”. In the series with leukemia L-1210 [2], this molecule gave a response vs control in vivo at 100 mg/kg of 127%, a response vs control in vivo at 200 mg/kg of 136% and a response vs control in vivo at 400 mg/kg of 164%.
